What was measured:
Type in all cases: cell-based, human
[1] = test system: Molt-4 cells; assay: Apoptosis and necrosis, Annexin V FITC / PI flow cytometry
Experimental: (§1) Apoptosis and necrosis were analyzed by staining the cells with Annexin V FITC (BD Biosciences, Heidelberg, Germany) and propidium iodide (PI) (Sigma Aldrich, St. Louis, USA). Results were assessed by flow cytometry.
(§2) (A) Cells were treated with PDA-66 for up to 72 h and stained with Annexin V FITC and Propidium iodide (PI). Rates of early apoptotic (FITC^+, PI^−) and late apoptotic and necrotic (FITC^+, PI^+) cells were measured by flow cytometry. Significant induction of apoptosis could be observed in all cell lines after 48 h of incubation as well as tendential induction of necrosis at both points of time. […] (B) Induction of apoptosis was confirmed by Western blot. Cells were treated with different concentrations of PDA-66 and total cell lysates (25 μg) were analyzed by Western blot to detect cleavage of Caspase 3, 7 and PARP. GAPDH was used as loading control.
(§3) More specifically, 5×10^5 cells were harvested and washed twice (180 g, 10 min, 4° C.) with PBS. After resuspending the cells in 100 μl of binding buffer (1×) 4 μl of Annexin V FITC were added and incubated for 15 min at room temperature. Following addition of 400 μl binding buffer for a final volume of 500 μl the cells were stained with PI (0.6 μg/ml) immediately before measurement. As controls unstained and single stained cells were included in each experiment. Measurements were performed using FACSCalibur (Becton and Dickinson, Heidelberg, Germany) and data analyses were carried out with CellQuest software (Becton and Dickinson, Heidelberg, Germany).

[2] = test system: SEM cells; assay: as above
Experimental: as §1, §2, §3

[3] = test system: Jurkat cells; assay: as above
Experimental: as §1, §2, §3

[4] = test system: RS4;11 cells; assay: as above
Experimental: as §1, §2, §3

[5] = test system: cleavage of Caspase 3, 7 and PARP; assay: Western blot, induction of apoptosis; conditions: all cell lines (SEM shown exemplarily); 48 h after addition
Experimental: as §2
Additionally, the effect of PDA-66 on apoptosis was determined by and western blot. For protein extraction cells were washed twice in PBS and lysed with RIPA buffer (50 mM Tris HCl pH 7.4; 150 mM NaCl; 0.1% SDS and 1% NP40) including protease and phosphatase inhibitors (Roche Applied Science, Mannheim, Germany). Samples were incubated for 20 min at 4° C. and frozen at −20° C. Cell extracts were thawed and centrifuged at 12000 g for 10 min at 4° C. Total protein concentration of supernatants was determined using Bio-Rad Protein Assay (Bio-Rad, München, Germany).
Equal amounts of protein samples were separated by SDS-polyacrylamid gel (8% or 15%) electrophoresis and transferred onto a PVDF membrane (Amersham Biosciences, Buckinghamshire, UK). […]

[6] = test system: Molt-4 cells; assay: Proliferation, cell counts by trypan blue staining
Experimental: (§4) The human B-ALL cell lines SEM, RS4;11 and the human T-ALL cell lines Jurkat and Molt-4 were purchased from DSMZ (Germany) and cultured according to manufacturer's protocol. The corresponding medium was supplemented with 10% heat-inactivated fetal bovine serum (PAA, Pasching, Austria) and 1% penicillin and streptomycin (Biochrom AG, Berlin, Germany). The Molt-4 cells were cultured with medium supplemented with 20% heat-inactivated fetal bovine serum. All cells were maintained at 37° C. in 5% CO2. Cells (5×10^5/well) were seeded in 24 well plates (Nunc, Langenselbold, Germany) and incubated for up to 72 h with PDA-66. Treated cells were harvested after 4, 24, 48 and 72 h and used for further analyses.
(§5) Cell counts were determined using the trypan blue staining. Metabolic activity was analyzed by using tetrazolium compound WST-1 (Roche, Mannheim, Germany). In brief, triplicates of cells (5×10^4/well) were seeded in 96 well plates, treated with PDA-66 and incubated with 15 μl WST-1 for up to 4 h. The mitochondrial dehydrogenases reduce WST-1 to soluble formazan and cause a change of color, which correlates with the amount of metabolically active cells. Absorbance at 450 nm and a reference wavelength at 620 nm were determined by an ELISA Reader (Anthos, Krefeld, Germany). The absorbance of culture medium with supplemented WST-1 in the absence of cells was used as background control.
(§6) The influence of PDA-66 on proliferation in ALL cell lines SEM, RS4;11, Jurkat and Molt-4 was analyzed by incubation with different concentrations of the drug (0.001 μM to 10 μM). Metabolic activity was determined using WST-1 assay. […] Results are summarized in FIG. 2, whereby the individual nine bars for each set of experiments represent, from left to right, DMSO, 0.001 μM, 0.01 μM, 0.1 μM, 0.25 μM, 0.5 μM, 1.0 μM, 5 μM and 10 μM. After 48 h of incubation an inhibition of proliferation could be observed, but was more distinct after 72 h.

[7] = test system: SEM cells; assay: Proliferation, cell counts by trypan blue staining
Experimental: as §4, §5, §6

[8] = test system: Jurkat cells; assay: Proliferation, cell counts by trypan blue staining
Experimental: as §4, §5, §6

[9] = test system: RS4;11 cells; assay: Proliferation, cell counts by trypan blue staining
Experimental: as §4, §5, §6

[10] = 0.5 μM PDA-66, 72 h, vs. DMSO control
[11] = 0.5 μM or more, seeded cells 5×10^5

Compound: CC(=O)c1ccc(C2=C(c3c(C)[nH]c4ccccc34)C(=O)N(C)C2=O)cc1 [PDA-66, 3-(4-Acetylphenyl)-1-methyl-4-(2-methyl-1H-indol-3-yl)-1H-pyrrole-2,5-dione]
- necrosis ([1]; 1 μM PDA-66, 48 h): tendential increase
- apoptosis (early apoptotic cells, FITC+, PI−) ([1]; 1 μM PDA-66, 48 h, mean±SD): 16.3±5.1%
- apoptosis (early apoptotic cells, FITC+, PI−) ([1]; 1 μM PDA-66, 72 h, mean±SD): 20.1±6.6%
- necrosis rate (late apoptotic and necrotic cells, FITC+, PI+) ([1]; 1 μM PDA-66, 72 h, mean±SD): 46.7±15.6%
- necrosis ([2]; 1 μM PDA-66, 48 h): tendential increase
- apoptosis (early apoptotic cells, FITC+, PI−) ([2]; 1 μM PDA-66, 48 h, mean±SD): 10.5±1.3%
- apoptosis (early apoptotic cells, FITC+, PI−) ([2]; 1 μM PDA-66, 72 h, mean±SD): 5.6±1.6%
- necrosis rate (late apoptotic and necrotic cells, FITC+, PI+) ([2]; 1 μM PDA-66, 72 h, mean±SD): 27.8±5.81%
- necrosis ([3]; 1 μM PDA-66, 48 h): tendential increase
- apoptosis (early apoptotic cells, FITC+, PI−) ([3]; 1 μM PDA-66, 48 h, mean±SD): 8.3±1.9%
- apoptosis (early apoptotic cells, FITC+, PI−) ([3]; 1 μM PDA-66, 72 h, mean±SD): 6.1±0.7%
- necrosis rate (late apoptotic and necrotic cells, FITC+, PI+) ([3]; 1 μM PDA-66, 72 h, mean±SD): 28.0±13.4%
- necrosis ([4]; 1 μM PDA-66, 48 h): tendential increase
- apoptosis (early apoptotic cells, FITC+, PI−) ([4]; 1 μM PDA-66, 48 h, mean±SD): 7.4±1.1%
- apoptosis (early apoptotic cells, FITC+, PI−) ([4]; 1 μM PDA-66, 72 h, mean±SD): 6.4±3.6%
- necrosis rate (late apoptotic and necrotic cells, FITC+, PI+) ([4]; 1 μM PDA-66, 72 h, mean±SD): 26.5±10.2%
- cleavage of caspases 3 and 7 and PARP [5]: induced cleavage
- inhibition of proliferation [6, 10]: significant inhibition
- cell numbers [6, 11]: decrease in cell numbers i.e. below the amount of seeded cells
- inhibition of proliferation [7, 10]: significant inhibition
- cell numbers [7, 11]: decrease in cell numbers i.e. below the amount of seeded cells
- inhibition of proliferation [8, 10]: significant inhibition
- cell numbers [8, 11]: decrease in cell numbers i.e. below the amount of seeded cells
- inhibition of proliferation [9, 10]: significant inhibition
- cell numbers [9, 11]: decrease in cell numbers i.e. below the amount of seeded cells

Reference: patent US9724331B2, “Use of maleimide derivatives for preventing and treating leukemia” (CENTOGENE AG, priority 2012, dated 2017)
